Assays:
Type in all cases: biochemical
KLK5 = target: T1, KLK5 (Homo sapiens, UniProt Q9Y337); assay: Fluorescent kinetic enzyme inhibitor assay of KLK5 (Boc-VPR-AMC); conditions: Table 4; 7.5 nM KLK5, 100 μM substrate
T1 construct: purchased R&D Systems 1108-SE-010
T1 sequence (Q9Y337 23-293): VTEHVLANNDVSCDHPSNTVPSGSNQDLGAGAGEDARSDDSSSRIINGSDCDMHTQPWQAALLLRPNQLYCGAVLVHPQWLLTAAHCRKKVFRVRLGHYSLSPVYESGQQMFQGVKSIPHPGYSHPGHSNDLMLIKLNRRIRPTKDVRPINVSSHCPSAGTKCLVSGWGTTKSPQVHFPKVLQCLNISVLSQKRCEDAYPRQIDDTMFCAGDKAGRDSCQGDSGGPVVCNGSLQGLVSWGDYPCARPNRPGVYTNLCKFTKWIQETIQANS
Procedure: Fluorescent Kinetic Enzyme Inhibitor Assay of KLK5: Inhibitors (11-pt serial dilutions, 0-20 μM final concentration in reaction) were serially diluted in DMSO (2% DMSO final concentration) and then mixed with KLK5 (#1108-SE-010, R&D Systems, Minneapolis, Minnesota) in black 384 well plates (Corning #3575. Corning, NY). The final assay concentration for KLK5 is 7.5 nM in TNC buffer (25 mM Tris, 150 mM NaCl, 5 mM CaCl2), 0.01% Triton X-100, pH 8). After thirty minutes incubation at room temperature, Boc-VPR-AMC substrate was added. The final substrate concentrations for assay is 100 μM. Changes in fluorescence (excitation at 380 nm and emission at 460 nm) were measured at room temperature over time in a Biotek Synergy 2 plate reader (Winnoski, VT). Using GraphPad Prism version 6.04 software program, (GraphPad Software, San Diego, CA, graphpad.com), a four parameter curve fit was used to determine the inhibitor IC50s from a plot of the mean reaction velocity versus the inhibitor concentration. The IC50 values represent the average of three or more separate experimental determinations.

matriptase = target: T2, matriptase (Homo sapiens, UniProt Q9Y5Y6); assay: Fluorescent kinetic enzyme assay of matriptase activity (Boc-QAR-AMC); conditions: Table 2; read-out: Matriptase (IC50 nM)
T2 construct: purchased R&D Systems 3946-SE-010
T2 sequence (Q9Y5Y6 615-855 limits assumed): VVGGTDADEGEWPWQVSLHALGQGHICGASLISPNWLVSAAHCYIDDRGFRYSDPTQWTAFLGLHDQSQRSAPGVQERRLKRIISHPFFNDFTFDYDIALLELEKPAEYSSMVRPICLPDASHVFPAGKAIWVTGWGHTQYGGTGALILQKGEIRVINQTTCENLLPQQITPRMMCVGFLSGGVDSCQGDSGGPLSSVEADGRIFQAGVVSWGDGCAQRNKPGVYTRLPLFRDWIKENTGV
Procedure: (§1) After thirty minutes of incubation at room temperature, Boc-QLR-AMC substrate was added (HGFA assay) or Boc-QAR-AMC substrate (matriptase, and hepsin assays). […] From a plot of the mean reaction velocity versus the inhibitor concentration, a non-linear four parameter curve fit was performed using GraphPad Prism (GraphPad Software, San Diego, CA) to determine inhibitor IC50s. The IC50 values were determined from the average of three or more separate experimental determinations. Apparent Ki values were calculated using the Cheng and Prusoff equation (Ki=IC50/(1+[S]/Km).
(§2) Inhibitors were pre-incubated with protease followed by the addition of the substrate. Inhibition of substrate proteolysis derived fluorescence was monitored kinetically over a period of one hour.

[1] = target: T3, recombinant HGFA serine protease domain (Homo sapiens, UniProt Q04756); assay: Fluorescent kinetic enzyme assay of HGFA activity (Boc-QLR-AMC); conditions: Table 2; read-out: HGFA (IC50 nM)
T3 construct: His6 tag (N); seven amino acid spacer plus TEV cleavage site (N); made in house; host or cells: High 5 insect cells (baculovirus; Sf9 for virus production)
T3 sequence (Q04756 373-655): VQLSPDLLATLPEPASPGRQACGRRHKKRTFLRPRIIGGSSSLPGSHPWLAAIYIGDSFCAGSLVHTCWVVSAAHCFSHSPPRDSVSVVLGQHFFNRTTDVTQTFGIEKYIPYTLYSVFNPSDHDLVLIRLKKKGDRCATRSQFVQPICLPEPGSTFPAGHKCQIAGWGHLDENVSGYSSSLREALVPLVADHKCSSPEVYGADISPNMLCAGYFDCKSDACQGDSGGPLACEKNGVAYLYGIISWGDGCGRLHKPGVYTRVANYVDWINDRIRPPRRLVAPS
Outline: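 His-tagged HGFA protease domain from baculovirus-infected High 5 cells, 6.25 nM in pH 8 Tris/NaCl/5 mM CaCl2/0.01% Triton X-100 with 2% DMSO. IC50 from four-parameter velocity fit (≥3 runs); apparent Ki by Cheng–Prusoff.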

activated hepsin = target: T4, activated hepsin (Homo sapiens, UniProt P05981); assay: Fluorescent kinetic enzyme assay of hepsin activity (Boc-QAR-AMC); conditions: Table 2; read-out: Hepsin (IC50 nM)
T4 construct: purchased R&D Systems 4776-SE-010
Procedure: as §1, §2

Factor Xa = Factor Xa (Homo sapiens, UniProt P00742); assay: Chromogenic kinetic enzyme assay of Factor Xa (S2222); conditions: Table 2; chromogenic assay; read-out: Factor Xa* (IC50 nM)
Sequence of Factor Xa (P00742 235-488 limits assumed): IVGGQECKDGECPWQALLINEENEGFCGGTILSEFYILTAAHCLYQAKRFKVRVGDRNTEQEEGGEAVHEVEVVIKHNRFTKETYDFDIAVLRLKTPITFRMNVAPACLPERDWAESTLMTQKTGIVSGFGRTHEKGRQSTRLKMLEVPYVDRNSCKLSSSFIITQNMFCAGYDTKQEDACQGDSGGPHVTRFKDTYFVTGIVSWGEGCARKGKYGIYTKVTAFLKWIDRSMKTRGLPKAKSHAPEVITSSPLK
Sequence of Factor Xa (P00742 41-179 partner limits assumed): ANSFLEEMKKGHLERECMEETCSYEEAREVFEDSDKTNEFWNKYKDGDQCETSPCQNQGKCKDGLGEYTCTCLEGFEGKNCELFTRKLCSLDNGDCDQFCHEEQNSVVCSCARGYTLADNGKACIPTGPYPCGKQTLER

T4 sequence (P05981 163-417 limits assumed): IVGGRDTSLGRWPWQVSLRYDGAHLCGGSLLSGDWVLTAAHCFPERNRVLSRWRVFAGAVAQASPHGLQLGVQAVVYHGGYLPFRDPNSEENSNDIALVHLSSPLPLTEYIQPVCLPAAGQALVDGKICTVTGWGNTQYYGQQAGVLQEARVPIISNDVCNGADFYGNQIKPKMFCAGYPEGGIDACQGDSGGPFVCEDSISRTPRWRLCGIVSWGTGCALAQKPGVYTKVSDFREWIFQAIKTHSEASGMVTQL
T4 sequence (P05981 1-162 partner limits assumed): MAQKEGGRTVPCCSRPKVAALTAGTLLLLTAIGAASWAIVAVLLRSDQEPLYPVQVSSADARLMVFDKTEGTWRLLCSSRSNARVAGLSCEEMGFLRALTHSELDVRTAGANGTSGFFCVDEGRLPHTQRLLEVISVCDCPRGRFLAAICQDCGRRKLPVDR

Row | Structure (SMILES) | IC50 (KLK5) | IC50 (matriptase) | IC50 [1] | IC50 (activated hepsin) | IC50 (Factor Xa)
1 | CC(=O)N[C@H]1Cc2ccc(cc2)OCCCC[C@@H](C(=O)N[C@@H](CCCNC(=N)N)C(=O)c2nc3ccccc3s2)NC(=O)[C@H](Cc2ccccc2)NC1=O [VD4111, (7S,10S,13S)-13-acetamido-N—((S)-1-(benzo[d]thiazol-2-yl)-5-guanidino-1-oxopentan-2-yl)-10-benzyl-9,12-dioxo-2-oxa-8,11-diaza-1(1,4)-benzenacyclotetradecaphane-7-carboxamide] | 647 nM | 17 nM | 11.9 nM | 0.331 nM | 
2 | CC(=O)N[C@H]1Cc2ccc(cc2)OCCCC[C@@H](C(=O)N[C@@H](CCCNC(=N)N)C(=O)c2nc3ccccc3s2)NC(=O)[C@H](CC(C)C)NC1=O [VD4072, (7S,10S,13S)-13-acetamido-N—((S)-1-(benzo[d]thiazol-2-yl)-5-guanidino-1-oxopentan-2-yl)-10-isobutyl-9,12-dioxo-2-oxa-8,11-diaza-1(1,4)-benzenacyclotetradecaphane-7-carboxamide] | 5230 nM | 7.76 nM | 7.99 nM | 0.175 nM | 
3 | CC(=O)N[C@H]1Cc2ccc(cc2)OC/C=C\C[C@@H](C(=O)N[C@@H](CCCNC(=N)N)C(=O)c2nc3ccccc3s2)NC(=O)[C@H](CC(C)C)NC1=O [VD4010, (7S,10S,13S,Z)-13-acetamido-N—((S)-1-(benzo[d]thiazol-2-yl)-5-guanidino-1-oxopentan-2-yl)-10-isobutyl-9,12-dioxo-2-oxa-8,11-diaza-1(1,4)-benzenacyclotetradecaphan-4-ene-7-carboxamide] | 1830 nM | 3.24 nM | 11.1 nM | 0.141 nM | 122 nM
4 | CC(=O)N[C@H]1Cc2ccc(cc2)OCCCC[C@@H](C(=O)N[C@@H](CCCNC(=N)N)C(=O)c2nc3ccccc3s2)NC(=O)[C@H](Cc2c[nH]c3ccccc23)NC1=O [VD4158] | 3560 nM | 56.8 nM | 85.2 nM |  | 

From patent publication US12590123B2, “Compounds and methods for treating cancer, viral infections, and allergic conditions” (Washington University, priority 2019, dated 2026)
